Measured values as given in patent publication US7772260B2, “Imidazo[2,1-b]-1,3,4-thiadiazole sulfonamides” (Aegera Therapeutics Inc., priority 2001, dated 2010).

Legend:
[1] = molecular target: CA II (Homo sapiens, UniProt P00918); assay: CA II inhibition; format: biochemical; details: read-out: CAII(50)
Method: CA II inhabition was measured using the protocol described by Pocker, Y.'Stone, J. Biochemistry 1967, 6, 668.

[2] = tested on: retinal ganglion (RG) neurons; assay: Optical stroke model; format: in vivo, rat
Description: Various diseases which result in loss of vision are related to increased inter-ocular pressure and ocular stroke or ischemia. Loss of the retinal ganglion (RG) occur during ischemic insult and in diseases such as diabetes and glaucoma. A model of inter-ocular ischemia involves an invasive increase in ocular pressure which results in the collapse of the central retinal artery. Retinal ischemia is confirmed by whitening of the iris and loss of red reflex. The inter-ocular pressure is normalized after 30 minutes. This procedure is performed on the right eye and the left eye serves as a control. Compound was given either by intra-vitrial injection or via SC injections at 10 mg/kg (see Example 162).
The right eye of each rat was dilated fully using 1% tropacamide and 2% pheylephrine hydrochloride (Alcon Canada). A single drop of 0.5% proparacaine (Alcon) was used as a topical anesthetic. The anterior chamber of the right eye was cannulated with a 30-gauge needle connected to a saline reservoir and a manometer to monitor intraocular pressure. Intraocular pressure was raised to 110 mm Hg by raising the saline reservoir for 60 minutes. This increase in pressure collapses the central retinal artery. […] Optical function after 24 hrs, 28 hrs and 7 days was assessed using ERG measurements and histological staining of the RG layer.

[3] = Acute toxicity studies with compound 1 alone; format: in vivo; details: compound alone, 1, 5, and 10 mg/kg for 3 weeks
Method: Male Spraugue Dawley rats were treated with 50% HPDC vehicle (veh/veh), compound I dissolved in 50% HPDC at 1, 5, or 10 mg/kg (veh/1, veh/5, veh/10, respectively), or Taxol™ (9 mg/kg)+compound 1 dissolved in 50% HPDC at 1, 5, and 10 mg/kg (Tax/1, Tax/5, Tax/10) according to the dosing regime described in Example 160. Weight measurements were made ever other day.

[4] = tested on: SCG neurons; assay: Protection of SCG neurons from anti-NGF killing; format: cell-based, Sprague Dawley rats; details: Rattus norvegicus, Neuron; anti-NGF antibody, serum and NGF free 48 hours, Alamar Blue; +/−1 uM; read-out: IC(50), rescue from anti-NGF killing of SCG neurons
Method: Neurotrophins are critical to the growth, development, and survival of small fiber neurons of the PNS. SCG neurons are neurons of the PNS that undergo apoptosis upon NGF withdrawal. In a typical experiment SCG neurons are cultured in the presence of NGF, which induces survival and neurite out-growth. After 5 days the NGF is removed by either the addition of anti-NGF polyclonal antibody (Sigma) or by repeated washings (4 times) with NGF free media, resulting in the apoptosis of up to 90% of the neurons after 48 hours, as measured by MTS staining.
After 4 days the cells were treated with anti-NGF antibody (Sigma). At this time compound was added and the cells were maintained serum and NGF free for 48 hours, at which time viability was assessed using Alamar Blue (Medicorp) staining.

In the case of NS(=O)(=O)c1nn2cc(-c3ccccc3)nc2s1 [Compound 1, 6-Phenylimidazo[2,1-b]-1,3,4-thiadiazole-2-sulfonamide], the IC50 [1] is reported as 0.25 µM, the “protection of RG population / ERG conductance after ocular stroke” value ([2]; given post stroke, intravitreally then daily injections for 1 week) is reported as “protects the RG population allowing for normal conductance” and the “histology of the RG layer” value ([2]; intra-vitrial injection or SC) is reported as “healthy RG layers”. For the same compound, the “acute signs of toxicity” value [3] was “No acute signs of toxicity” and the IC50 [4] was 22 µM.
